Tests used:
Assay type in all cases: in vivo, Sprague-Dawley rats
[1] = test system: urethane anesthetized rat; experiment: Cerebral blood perfusion by Laser Doppler Flowmetry
Experimental: (§1) Male Sprague-Dawley rats weighing 323±4 grams (g) were anesthetized with urethane (ethyl carbamate, Sigma Aldrich, St. Louis, Mo.) dissolved in isotonic saline (0.9% NaCl, Hospira, Inc., Lake Forest, Ill.). The rats were administered a dose of 0.15 g per 100 g body weight via intraperitoneal (i.p.) injection.
Cerebral Perfusion: A burr hole was drilled into the rat skull about 2 millimeters (mm) to the left of midline. Cerebrovascular perfusion was measured via a fiber optic probe (PF407) applied to the surface of the rat brain. The probe was connected to a Periflux PF2b 4000 Laser Doppler Flowmetry unit (Perimed, Stockholm, Sweden).
(§2) The rats were randomly selected for various studies. Following surgery the rats were allowed to stabilize for 30 minutes and a 15 minutes baseline recording of all parameters (blood pressure, heart rate, cerebral blood flow, and renal blood flow) was obtained prior to the administration of the pretreatment followed by IRL-1620 (Suc-[Glu 9, Ala 11,15], American Peptide Co, Inc., Sunnyville, Calif.) or ET-1 (Ala 1,3,11,15, RBI Sigma, Natick, Mass.). BQ-788, a selective endothelin B antagonist, is the sodium salt of N-cis-2,6-dimethylpiperidinocarbonyl-L-gamma-methylleucyl-D-1-methoxycarbonyl triptophanyl-DNIe (see Proc. Natl. Acad. Sci. USA, 91, pp. 4892-4896 (1994)) BMS is BMS 182, 874, which is a selective endothelin A antagonist having a structure
(§3) Group 1: Animals (n=4) were pretreated with saline 15 minutes (min) prior to administration of IRL-1620 (5 μg/kg, i.v.).
(§4) Group 2: Animals (n=4) were pretreated with BMS (5 mg/kg, i.v.) 15 min prior to administration of IRL-1620 (5 μg/kg, i.v.).
(§5) Group 3: Animals (n=4) were pretreated with BMS (15 mg/kg, i.v.) 15 min prior to administration of IRL-1620 (5 μg/kg, i.v.).
(§6) Group 4: Animals (n=4) were pretreated with BQ788 (1 μg/kg, i.v.) 15 min prior to administration of IRL-1620 (5 μg/kg, i.v.).
(§7) Group 1: Animals (n=4) were pretreated with saline 15 min prior to administration of ET-1 (0.75 μg/kg, i.v.).
(§8) Group 2: Animals (n=4) were pretreated with BMS (5 mg/kg, i.v.) 15 min prior to administration of ET-1 (0.75 μg/kg, i.v.).
(§9) Group 3: Animals (n=4) were pretreated with BMS (15 mg/kg, i.v.) 15 min prior to administration of ET-1 (0.75 μg/kg, i.v.).
(§10) Group 4: Animals (n=4) were pretreated with BQ788 (1 μg/kg, i.v.) 15 min prior to administration of ET-1 (0.75 μg/kg, i.v.).
(§11) Blood pressure, heart rate, cerebral blood perfusion, and renal blood perfusion all were recorded for 2 hours following the final injection. Blood gases were analyzed prior to administration of any drugs, and at 60 and 120 min following administration of IRL-1620 or ET-1. At the end of each experiment, the animals were euthanized with an overdose of urethane i.v. In the figures, all data values are presented as mean±SEM. One-sample t-tests and one-way ANOVAs were used to test the differences within and between the groups. A P value of P<0.05 was considered significant.

[2] = test system: urethane anesthetized rat; experiment: Renal blood perfusion by Laser Doppler Flowmetry; settings: i.v.
Experimental: as §1
Renal Perfusion: The right kidney was dissected retroperitoneally. Renal perfusion was measured via a fiber optic probe (PF408) applied to the surface of the rat kidney. The probe was connected to a Periflux PF2b 4000 Laser Doppler Flowmetry unit (Perimed, Stockholm, Sweden).
as §2, §3, §4, §5, §6, §7, §8, §9, §10, §11

[3] = test system: urethane anesthetized rat; experiment: Blood pressure / mean arterial pressure recording; settings: i.v.; for decrease in mean arterial pressure: IRL-1620 5.0 μg/kg; for decrease in mean arterial pressure / increase in mean arterial pressure (subsequent hypertension): FIG. 11
Experimental: as §1
(§12) Blood Pressure and Heart Rate: The femoral vein and artery were cannulated. The arterial cannula was connected to a Gould P23 ID pressure transducer for recording the blood pressure on a Grass P7D polygraph through a 7PI preamplifier. The heart rate was recorded through a 7P4B Grass tachograph, triggered from blood pressure signals. Drugs were administered via the venous cannula.
as §2, §3, §4, §5, §6, §7, §8, §9, §10, §11

[4] = test system: urethane anesthetized rat; experiment: Heart rate recording; settings: IRL-1620 5 μg/kg; for heart rate: mean±SEM, in bpm (unit assumed)
Experimental: as §1, §12, §2, §3, §4, §5
Group 4: Animals (n=4) were pretreated with BQ788 (1 μg/kg, i.v.) 15 min prior to administration of IRL-1620 (5 μg/kg, i.v.). […]
as §11

[5] = test system: urethane anesthetized rat; experiment: Arterial blood gas analysis; settings: IRL-1620 5 μg/kg, i.v., ET-1 0.75 μg/kg
Experimental: as §1
Blood Gas Analysis: Arterial blood gases were monitored to determine the effects on pH, pCO2, and pO2. Blood was drawn from the arteriole cannula and analyzed using a GEM Premier 3000 unit (Instrument Laboratory, Lexington, Mass.).
as §11

[6] = time 0 min (prior to any drugs)

Molecule: Cc1noc(NS(=O)(=O)c2cccc3c(N(C)C)cccc23)c1C [BMS]
- effect of pretreatment on the effect of ET-1 on cerebral blood flow ([1]; BMS 5 and 15 mg/kg, i.v., BQ788 1 μg/kg, ET-1 0.75 μg/kg, FIG. 7): no significant change
- transient increase in cerebral blood flow ([1]; high dose of BMS (15 mg/kg, i.v.) pretreatment, 1 minute after administration of IRL-1620 5 μg/kg, FIG. 6): 37.99%
- effect of pretreatment on the effect of ET-1 on renal blood flow ([2]; BMS 5 and 15 mg/kg, BQ788 1 μg/kg, ET-1 0.75 μg/kg, FIG. 10): No pretreatment significantly altered
- effect of pretreatment on the effect of IRL-1620 on renal blood flow ([2]; BMS 5 and 15 mg/kg, BQ788 1 μg/kg, IRL-1620 5 μg/kg, FIG. 9): sustained decrease in renal blood flow up to 120 minutes
- effect of pretreatment on the effect of ET-1 on mean arterial pressure ([3]; BMS 5 and 15 mg/kg, BQ788 1 μg/kg, ET-1 0.75 μg/kg, FIG. 13): failed to alter
- effect of pretreatment on the effect of IRL-1620 on mean arterial pressure ([3]; BMS 5 and 15 mg/kg, BQ788 1 μg/kg, IRL-1620 5 μg/kg, FIG. 12): transient hypotension similar to that observed in animals pretreated with saline
- heart rate ([4]; 5 mg/kg BMS pretreatment, i.v., time 0 min): 339 ± 6
- heart rate ([4]; 5 mg/kg BMS pretreatment, i.v., time 1 min): 365 ± 4
- heart rate ([4]; 5 mg/kg BMS pretreatment, i.v., time 5 min): 357 ± 13
- heart rate ([4]; 5 mg/kg BMS pretreatment, i.v., time 10 min): 345 ± 14
- heart rate ([4]; 5 mg/kg BMS pretreatment, i.v., time 15 min): 345 ± 14
- heart rate ([4]; 5 mg/kg BMS pretreatment, i.v., time 30 min): 356 ± 12
- heart rate ([4]; 5 mg/kg BMS pretreatment, i.v., time 45 min): 367 ± 14
- heart rate ([4]; 5 mg/kg BMS pretreatment, i.v., time 60 min): 370 ± 14
- heart rate ([4]; 5 mg/kg BMS pretreatment, i.v., time 90 min): 350 ± 9
- heart rate ([4]; 5 mg/kg BMS pretreatment, i.v., time 120 min): 327 ± 12
- heart rate ([4]; 15 mg/kg BMS pretreatment, i.v., time 0 min): 405 ± 11
- heart rate ([4]; 15 mg/kg BMS pretreatment, i.v., time 1 min): 425 ± 11
- heart rate ([4]; 15 mg/kg BMS pretreatment, i.v., time 5 min): 382 ± 13
- heart rate ([4]; 15 mg/kg BMS pretreatment, i.v., time 10 min): 380 ± 11
- heart rate ([4]; 15 mg/kg BMS pretreatment, i.v., time 15 min): 384 ± 11
- heart rate ([4]; 15 mg/kg BMS pretreatment, i.v., time 30 min): 387 ± 17
- heart rate ([4]; 15 mg/kg BMS pretreatment, i.v., time 45 min): 387 ± 21
- heart rate ([4]; 15 mg/kg BMS pretreatment, i.v., time 60 min): 395 ± 19
- heart rate ([4]; 15 mg/kg BMS pretreatment, i.v., time 90 min): 393 ± 21
- heart rate ([4]; 15 mg/kg BMS pretreatment, i.v., time 120 min): 386 ± 18
- effect of pretreatment on the effect of IRL-1620 on heart rate (Table 1) ([4]; BMS 5 and 15 mg/kg, BQ788, i.v.): increase

Molecule: ET-1: endothelin-1 (ET-1), a 21-amino acid peptide (ASASSLMDKEAVYFAHLDIIW)
- change in cerebral blood flow ([1]; ET-1 0.75 μg/kg, i.v., FIG. 5): no significant change
- persistence of the decrease in renal blood flow ([2]; IRL-1620 5 μg/kg, ET-1 0.75 μg/kg, FIG. 8): approximately 15 minutes
- decrease in renal blood flow ([2]; at 1 minute, IRL-1620 5 μg/kg, ET-1 0.75 μg/kg, FIG. 8): 40.27%
- decrease in renal blood flow ([2]; at 5 minutes, IRL-1620 5 μg/kg, ET-1 0.75 μg/kg, FIG. 8): 50.10%
- decrease in renal blood flow ([2]; at 10 minutes, IRL-1620 5 μg/kg, ET-1 0.75 μg/kg, FIG. 8): 26.33%
- decrease in mean arterial pressure ([3]; at 0.2 minute, ET-1 0.75 μg/kg): 43.16%
- decrease in mean arterial pressure ([3]; at 0.5 minute, ET-1 0.75 μg/kg): 37.80%
- decrease in mean arterial pressure ([3]; at 1 minute, ET-1 0.75 μg/kg): 19.30%
- increase in mean arterial pressure (subsequent hypertension) ([3]; at 5 minutes, ET-1 0.75 μg/kg): 12.72%
- increase in mean arterial pressure (subsequent hypertension) ([3]; at 10 minutes, ET-1 0.75 μg/kg): 25.56%
- increase in mean arterial pressure (subsequent hypertension) ([3]; at 15 minutes, ET-1 0.75 μg/kg): 28.49%
- effect on heart rate (Table 1) ([4]; i.v. after saline, ET-1 with or without pretreatment): No significant alteration
- effect on arterial blood gases (text to Table 2) [5]: Neither IRL-1620 nor ET-1 significantly affected blood gases
- arterial blood pCO2 [5, 6]: 34 ± 3
- arterial blood pH [5, 6]: 7.32 ± 0.01
- arterial blood pO2 [5, 6]: 118 ± 4
- arterial blood pCO2 ([5]; time 60 min): 40 ± 4
- arterial blood pH ([5]; time 60 min): 7.29 ± 0.01
- arterial blood pO2 ([5]; time 60 min): 110 ± 2
- arterial blood pCO2 ([5]; time 120 min): 38 ± 4
- arterial blood pH ([5]; time 120 min): 7.27 ± 0.01
- arterial blood pO2 ([5]; time 120 min): 116 ± 5

From patent US9493524B2, “Methods for treatment of stroke or cerebrovascular accidents using an ETB receptor agonist” (MIDWESTERN UNIVERSITY, priority 2007, dated 2016)
